Biological target: MAPK14 (human) (UniProt Q16539)
Experiment: Inhibition of MAPK14 Kinase Activity

Chain of MAPK14 (human) (Q16539 whole entry, looked up): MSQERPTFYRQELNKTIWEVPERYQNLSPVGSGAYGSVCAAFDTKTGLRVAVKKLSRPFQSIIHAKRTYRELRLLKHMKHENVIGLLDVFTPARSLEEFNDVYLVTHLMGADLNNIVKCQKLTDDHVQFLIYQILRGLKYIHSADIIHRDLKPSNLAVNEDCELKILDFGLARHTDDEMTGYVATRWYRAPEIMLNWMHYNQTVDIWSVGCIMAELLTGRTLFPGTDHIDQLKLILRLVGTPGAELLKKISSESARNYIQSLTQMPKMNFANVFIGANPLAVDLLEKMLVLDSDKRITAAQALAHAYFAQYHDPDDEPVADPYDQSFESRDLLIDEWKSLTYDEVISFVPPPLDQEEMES

IC50, < 2 µM:
Cc1cc(C(=O)c2c(N[C@H]3CCN(C)C3)sc3c2ccc(=O)n3-c2ccccc2)ccc1F, O=C(c1cccc(Cl)c1)c1c(NC(=O)C2CCNCC2)sc2c1ccc(=O)n2-c1ccccc1, Nc1sc2c(ccc(=O)n2-c2ccccc2)c1C(=O)c1ccc(F)c(Cl)c1, CC(=O)Nc1sc2c(ccc(=O)n2-c2ccccc2)c1C(=O)c1ccc(F)c(Cl)c1, Cc1ccc(C(=O)c2c(N)sc3c2ccc(=O)n3-c2ccccc2)cc1C, Cc1cccc(C(=O)c2c(NS(C)(=O)=O)sc3c2ccc(=O)n3-c2ccccc2)c1, Nc1sc2c(ccc(=O)n2-c2ccccc2)c1C(=O)c1ccc(Cl)cc1, NC(=O)c1sc2c(ccc(=O)n2-c2ccccc2)c1C(=O)c1ccc(F)c(Cl)c1, Cc1cc(C(=O)c2c(NC3CCN(C)CC3)sc3c2ccc(=O)n3-c2ccccc2)ccc1F, Cc1cccc(C(=O)c2c(N)sc3c2ccc(=O)n3-c2ccccc2)c1, O=C(NCCO)Nc1sc2c(ccc(=O)n2-c2ccccc2)c1C(=O)c1ccccc1, Cc1cccc(C(=O)c2c(NC(N)=O)sc3c2ccc(=O)n3-c2ccccc2)c1, Cc1cccc(C(=O)c2c(C(=O)N3CCC3)sc3c2ccc(=O)n3-c2ccccc2)c1, CN1CC(Nc2sc3c(ccc(=O)n3CC3CC3)c2C(=O)c2ccccc2)C1, Cc1cc(C(=O)c2c(N[C@H]3CCNC3)sc3c2ccc(=O)n3-c2ccccc2)ccc1F, CC(=O)Nc1sc2c(ccc(=O)n2-c2ccccc2)c1C(=O)c1ccc(F)c(C)c1, N[C@@H]1CCN(C(=O)Nc2sc3c(ccc(=O)n3-c3ccccc3)c2C(=O)c2ccccc2)C1, Cc1cc(C(=O)c2c(NC3CNC3)sc3c2ccc(=O)n3-c2ccccc2)ccc1F, CC(=O)Nc1sc2c(ccc(=O)n2-c2ccccc2Cl)c1C(=O)c1ccc(F)c(C)c1, Cc1cccc(C(=O)c2c(NC(=O)OC(C)(C)C)sc3c2ccc(=O)n3-c2ccccc2)c1, Cc1cccc(C(=O)c2c(NC3CN(C)C3)sc3c2ccc(=O)n3-c2ccccc2)c1, Nc1sc2c(ccc(=O)n2CC2CC2)c1C(=O)c1ccccc1, Cc1cccc(C(=O)c2c(N[C@H]3CCNC3)sc3c2ccc(=O)n3-c2ccccc2)c1, CCN1CCC(Nc2sc3c(ccc(=O)n3-c3ccccc3)c2C(=O)c2cccc(C)c2)CC1, CC(=O)Nc1sc2c(ccc(=O)n2-c2ccccc2)c1C(=O)c1cccc(C)c1, CCOC(=O)c1sc2c(ccc(=O)n2-c2ccccc2)c1C(=O)c1ccc(F)c(C)c1, CN1CC(CNc2sc3c(ccc(=O)n3-c3ccccc3)c2C(=O)c2ccccc2)C1, CCOC(=O)c1sc2c(ccc(=O)n2CC2CC2)c1C(=O)c1ccccc1, N#Cc1sc2c(ccc(=O)n2-c2ccccc2)c1C(=O)c1ccccc1, O=C(c1ccccc1)c1c(C(=O)N2CCCC2)sc2c1ccc(=O)n2-c1ccccc1, COc1cccc(C(=O)c2c(NC(C)=O)sc3c2ccc(=O)n3-c2ccccc2)c1, NC1CN(c2sc3c(ccc(=O)n3-c3ccccc3)c2C(=O)c2ccccc2)C1, Cc1cc(C(=O)c2c(N)sc3c2ccc(=O)n3-c2ccc(F)cc2)ccc1F, Cc1cc(C(=O)c2c(NC3CN(C)C3)sc3c2ccc(=O)n3CC2CC2)ccc1F, C[C@@H](Nc1sc2c(ccc(=O)n2-c2ccccc2)c1C(=O)c1ccccc1)C(N)=O, CCN1CCC(C(=O)Nc2sc3c(ccc(=O)n3-c3ccccc3)c2C(=O)c2ccccc2)CC1, O=C(c1cccc(C(F)(F)F)c1)c1c(NC(=O)C2CCNCC2)sc2c1ccc(=O)n2-c1ccccc1, CC(C)(CO)NC(=O)Nc1sc2c(ccc(=O)n2-c2ccccc2Cl)c1C(=O)c1ccccc1, Nc1sc2c(ccc(=O)n2-c2ccccc2)c1C(=O)c1ccc(OC(F)F)cc1, Cc1ccc(C(=O)c2c(N)sc3c2ccc(=O)n3-c2ccccc2)cc1, CC(=O)Nc1sc2c(ccc(=O)n2-c2ccccc2F)c1C(=O)c1ccc(F)c(C)c1, CCN1CCC(NC(=O)Nc2sc3c(ccc(=O)n3-c3ccccc3)c2C(=O)c2cccc(C)c2)C1 (configuration not stated), Nc1sc2c(ccc(=O)n2-c2ccccc2)c1C(=O)c1ccccc1Cl, Cc1cc(C(=O)c2c(NC(=O)C3CCNCC3)sc3c2ccc(=O)n3-c2ccccc2F)ccc1F, Nc1sc2c(ccc(=O)n2-c2ccccc2)c1C(=O)c1cccc(Cl)c1, O=C(c1ccccc1)c1c(NC2CCNCC2)sc2c1ccc(=O)n2-c1ccccc1, Cc1cccc(C(=O)c2c(NC(=O)N(C)C)sc3c2ccc(=O)n3-c2ccccc2)c1, Cc1cccc(C(=O)c2c(N3CCCCC3)sc3c2ccc(=O)n3-c2ccccc2)c1, Nc1sc2c(ccc(=O)n2-c2ccccc2)c1C(=O)c1ccc(OC(F)(F)F)cc1, CC(C)N1CC(Nc2sc3c(ccc(=O)n3-c3ccccc3)c2C(=O)c2ccccc2)C1, O=C(c1ccccc1)c1c(NC2CCCNC2)sc2c1ccc(=O)n2-c1ccccc1 (configuration not stated), Nc1sc2c(ccc(=O)n2-c2ccccc2)c1C(=O)c1ccc(F)cc1, CN(C)c1ccc(-n2c(=O)ccc3c(C(=O)c4ccccc4)c(N)sc32)cn1, Cc1cc(C(=O)c2c(NC3CN(C)C3)sc3c2ccc(=O)n3-c2ccccc2)ccc1F, CC(=O)Nc1sc2c(ccc(=O)n2-c2ccccc2)c1C(=O)c1cccc(Cl)c1, Cc1cccc(C(=O)c2csc3c2ccc(=O)n3-c2ccccc2)c1, Cc1cc(C(=O)c2c(NC(=O)NC(C)(C)CO)sc3c2ccc(=O)n3CC2CC2)ccc1F, CC(C)(O)CNC(=O)Nc1sc2c(ccc(=O)n2-c2ccccc2)c1C(=O)c1ccccc1, CCN1CC(Nc2sc3c(ccc(=O)n3-c3ccccc3)c2C(=O)c2ccccc2)C1, Cc1cc(C(=O)c2c(NC3CCN(C)CC3)sc3c2ccc(=O)n3-c2c(F)cccc2F)ccc1F, CN1CC(Nc2sc3c(ccc(=O)n3-c3ccccc3)c2C(=O)c2ccccc2)C1, CC(=O)Nc1sc2c(ccc(=O)n2-c2ccccc2Cl)c1C(=O)c1cccc(C)c1, Cc1cccc(C(=O)c2c(N[C@H]3CCN(C)C3)sc3c2ccc(=O)n3-c2ccccc2)c1, O=C(c1ccccc1)c1c(NC2CNC2)sc2c1ccc(=O)n2-c1c(F)cccc1F, CN1CC[C@@H](NC(=O)Nc2sc3c(ccc(=O)n3-c3ccccc3)c2C(=O)c2ccccc2)C1, Cc1cc(C(=O)c2c(NC(=O)NC(C)(C)CO)sc3c2ccc(=O)n3-c2ccccc2Cl)ccc1F, Nc1sc2c(ccc(=O)n2-c2c(F)cccc2F)c1C(=O)c1ccccc1

Source: the Kinase Knowledgebase extract (Sharma et al. 2016)
